18 molecules from PubChem BioAssay (NCI) can be followed below.

Test systems include BT-549 breast; HCC-2998 colon; HOP-92 NSCLC; MCF7 breast; SF-268 CNS; SK-MEL-28 melanoma; SK-MEL-5 melanoma; T-47D breast.
Holding throughout (assay): DTP human tumour cell line panel, 48 h

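Step 1: Grow cells in 96-well plates. Step 2: Expose to compound for 48 hours at 5 concentrations. Step 3: Interpolate endpoints linearly; if unreached, use highest concentration. Abbreviation: GI50, concentration required for 50% inhibition of growth. TGI is the concentration that stops growth completely.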 Where a SMILES comes first, the peptide text is derived from it. Side-chain parts run from the residue outwards. The star is where a group is joined. Cbz = O=C(OCc1ccccc1)*; Boc = CC(C)(C)OC(=O)*

By TGI is commonly meant the concentration giving total growth inhibition. Take `N#Cc1ccc(C2Oc3ccc(Cl)cc3C=C2[N+](=O)[O-])cc1` (stereo not given): the TGI came to 1.13 µM in the assay on BT-549 breast; 3.21 µM in the assay with HCC-2998 colon; 2.83 µM in the assay on HOP-92 NSCLC; 3.14 µM in the assay on MCF7 breast; 4.16 µM in the assay on SF-268 CNS; 3.31 µM in the assay on SK-MEL-28 melanoma. The molecule further showed a TGI in the assay on SK-MEL-5 melanoma of 2.68 µM.

For `O=C(c1ccccc1)c1c(C(F)(F)F)n([O-])c2cc(F)c(F)cc2[n+]1=O`, the TGI is 0.324 µM with HOP-92 NSCLC; 1.71 µM in the assay with MCF7 breast; 2.45 µM in the assay with SF-268 CNS; greater than 100 µM in the assay on SK-MEL-28 melanoma; 3.33 µM with SK-MEL-5 melanoma; greater than 36.7 µM in the assay on T-47D breast.

`CC(C)(C)OC(=O)n1c(Cl)c(C=O)c2ccccc21`: the TGI is 52.5 µM with BT-549 breast; 56.8 µM in the assay on HOP-92 NSCLC; 36.2 µM in the assay with SF-268 CNS; greater than 100 µM in the assay on SK-MEL-28 melanoma; greater than 100 µM in the assay with SK-MEL-5 melanoma; greater than 100 µM with T-47D breast.

As to `COc1cc2[nH]c(=O)c3cc(C)cc4c(Cl)nc(c1OC)c2c43`, the concentration for total growth inhibition (TGI) with BT-549 breast was greater than 100 µM; in the assay with HCC-2998 colon, greater than 100 µM; with HOP-92 NSCLC, greater than 100 µM; in the assay with MCF7 breast, greater than 100 µM; in the assay with SF-268 CNS, 84.8 µM; in the assay with SK-MEL-28 melanoma, greater than 100 µM. Moreover, the TGI in the assay with SK-MEL-5 melanoma is greater than 100 µM.

On to `CC(=O)N1C(Nc2cccc3nc(C)ccc23)CCN1c1ccccc1` (stereo not given), for which the TGI in the assay on BT-549 breast, with HCC-2998 colon, in the assay on MCF7 breast, in the assay with SF-268 CNS, with SK-MEL-28 melanoma and in the assay on SK-MEL-5 melanoma was greater than 10 µM each time. This molecule had a TGI with T-47D breast greater than 10 µM.

Regarding `S=C(N/N=C(\C(=N/NC(=S)N1CCCCC1)c1ccccn1)c1ccccn1)N1CCCCC1`, the TGI in the assay with BT-549 breast, in the assay on HCC-2998 colon, in the assay on HOP-92 NSCLC, in the assay with MCF7 breast, in the assay with SF-268 CNS and with SK-MEL-28 melanoma was greater than 100 µM in each case. In the assay on SK-MEL-5 melanoma, this molecule gave a TGI greater than 100 µM.

Turning to `CC(C)(C)OC(=O)NC(CCCCNC(=O)CNC(=O)OCc1ccccc1)C(=O)NC(CCCCNC(=O)CNC(=O)OCc1ccccc1)C(=O)NC(CCCCNC(=O)CNC(=O)OCc1ccccc1)C(=O)NC(CCCCNC(=O)CNC(=O)OCc1ccccc1)C(=O)O` (stereo not given) (Boc-K([Gly-Cbz])K([Gly-Cbz])K([Gly-Cbz])K([Gly-Cbz])-OH; configuration not given here), the TGI with BT-549 breast, with HCC-2998 colon, with MCF7 breast, in the assay on SF-268 CNS, with SK-MEL-28 melanoma and in the assay on SK-MEL-5 melanoma was greater than 100 µM each time. This molecule also came in with a TGI in the assay on T-47D breast greater than 100 µM.

For `COc1ccc(C2=C(Cl)c3cc(OC)c(OC)cc3C2)cc1OC`, the TGI in the assay with HCC-2998 colon, in the assay with HOP-92 NSCLC, in the assay on SF-268 CNS, with SK-MEL-28 melanoma and with SK-MEL-5 melanoma was greater than 100 µM each time.

For `Cc1cn([C@@H]2C[C@H](CO)[C@@H]2O)c(=O)[nH]c1=O`, the TGI in the assay with BT-549 breast, with HCC-2998 colon, with HOP-92 NSCLC, in the assay with MCF7 breast, in the assay with SF-268 CNS and with SK-MEL-28 melanoma was greater than 100 µM in each case. Further, the TGI with SK-MEL-5 melanoma was greater than 100 µM.

Take `CCOC1NC(/N=C/c2ccc(OC)cc2)=C(C#N)C1C#N` (stereo not given): the TGI in the assay on BT-549 breast was 73.5 µM; in the assay with HCC-2998 colon, greater than 100 µM; in the assay on MCF7 breast it was greater than 100 µM; with SF-268 CNS, greater than 100 µM; in the assay with SK-MEL-28 melanoma it was greater than 100 µM; in the assay on SK-MEL-5 melanoma, greater than 100 µM.

For the molecule `COc1cc(C(O)C(=O)c2cnc3cc([N+](=O)[O-])ccc3n2)ccc1O` (stereo not given), the total growth inhibition concentration (TGI) in the assay on HCC-2998 colon and with SK-MEL-5 melanoma was greater than 100 µM each time.

As to `COc1cc2c(c(OC)c1OC)-c1ccc(SC)c(=O)cc1[C@@H](NCc1cccc([N+](=O)[O-])c1)CC2`, the total growth inhibition concentration (TGI) in the assay with HCC-2998 colon is less than 0.01 µM; in the assay on HOP-92 NSCLC it was greater than 100 µM; in the assay with SF-268 CNS, 28 µM.

As for `COc1ccc([C@H]2c3cc4c(cc3OC(O)(CO)[C@H]2C(=O)O)OCO4)c(OC)c1` (stereo not given in full) (tested in a mixture with another compound), the TGI with HCC-2998 colon was greater than 100 µM; in the assay on HOP-92 NSCLC, greater than 100 µM; in the assay on SF-268 CNS, greater than 100 µM; in the assay on SK-MEL-28 melanoma it was 95.8 µM; in the assay with SK-MEL-5 melanoma, greater than 100 µM.

Regarding `Cc1ccc(N=C2SC(=NN(C)C)SC2=Nc2ccc(C)cc2)cc1`, the TGI with HCC-2998 colon, with HOP-92 NSCLC, in the assay with SF-268 CNS, in the assay with SK-MEL-28 melanoma, in the assay with SK-MEL-5 melanoma and in the assay on T-47D breast was greater than 100 µM in each case.

On to `CC(C)C1=C(Cc2ccccc2)C(=O)O/C1=C\c1ccc(O)c(Cl)c1`, for which the TGI with BT-549 breast amounted to 36.7 µM; in the assay with HCC-2998 colon it was 28.7 µM; with MCF7 breast, 30.3 µM; in the assay with SF-268 CNS, 30.4 µM; with SK-MEL-28 melanoma, 30.9 µM; in the assay on SK-MEL-5 melanoma, 31.2 µM.

With `COc1ccc(CCCN2c3ccccc3Sc3ccccc32)cc1`, the TGI in the assay on HCC-2998 colon, in the assay on HOP-92 NSCLC, with SF-268 CNS, in the assay on SK-MEL-28 melanoma and in the assay on SK-MEL-5 melanoma was greater than 100 µM each time.

In the case of `O=C(NN1C(=O)C(Cl)C1c1ccccc1Cl)c1ccccc1O` (stereo not given), the TGI in the assay with HCC-2998 colon, in the assay with SF-268 CNS, in the assay with SK-MEL-28 melanoma and in the assay with SK-MEL-5 melanoma was greater than 100 µM throughout.

The term GI50 denotes the concentration giving 50% growth inhibition. As to `COc1cc(/C(=C2/O[C@@H]([C@H]3COC(C)(C)O3)[C@H]3OC(C)(C)O[C@@H]23)c2ccc3c(c2)OCO3)cc(OC)c1OC`, the GI50 with HCC-2998 colon was greater than 25 µM; with HOP-92 NSCLC it was greater than 25 µM; in the assay on MCF7 breast, greater than 25 µM; with SF-268 CNS, greater than 25 µM; with SK-MEL-28 melanoma it was 16.1 µM; in the assay on SK-MEL-5 melanoma, 13 µM. In the assay with T-47D breast, the GI50 was 14.5 µM. Also, the TGI with HCC-2998 colon, in the assay on HOP-92 NSCLC, with MCF7 breast, in the assay on SF-268 CNS, in the assay with SK-MEL-28 melanoma and in the assay on SK-MEL-5 melanoma was greater than 25 µM each time. The molecule further displayed a concentration for total growth inhibition (TGI) with T-47D breast greater than 25 µM.
